According to ChEMBL document CHEMBL1122305, “Adriamycin analogues. Preparation and biological evaluation of some novel 14-thiaadriamycins” (1983):

Assays:
L1210 [1] = assay: Percent increase in life span relative to untreated controls in murine L1210 leukemia infected B6D2F1J male mice at […] optimal dose; assay type: functional, Mus musculus
CCRF-CEM = assay: In vitro growth inhibition against CCRF-CEM (human lymphoblastic leukemic) cell line.; assay type: functional; settings: read-out: ID50 (the source's name)
L1210 [2] = assay: Percent increase in life span relative to untreated controls in murine L1210 leukemia infected B6D2F1J male mice at 60 mg/kg optimal dose; assay type: functional; settings: Mus musculus
L1210 [3] = assay: Percent increase in life span relative to untreated controls in murine L1210 leukemia infected B6D2F1J male mice at 10.13 mg/kg optimal dose; assay type: functional; settings: Mus musculus
L1210 [4] = assay: Percent increase in life span relative to untreated controls in murine L1210 leukemia infected B6D2F1J male mice at 30 mg/kg optimal dose; assay type: functional; settings: Mus musculus
L1210 [5] = assay: Percent increase in life span relative to untreated controls in murine L1210 leukemia infected B6D2F1J male mice at 50 mg/kg optimal dose; assay type: functional; settings: Mus musculus
L1210 [6] = assay: Percent increase in life span relative to untreated controls in murine L1210 leukemia infected B6D2F1J male mice at 4 mg/kg optimal dose; assay type: functional; settings: Mus musculus
L1210 [7] = assay: Percent increase in life span relative to untreated controls in murine L1210 leukemia infected B6D2F1J male mice at 101.25 mg/kg optimal dose; assay type: functional; settings: Mus musculus

| Structure (SMILES) | IC50 (CCRF-CEM) | also measured |
| --- | --- | --- |
| CCCCSCC(=O)[C@]1(O)Cc2c(O)c3c(c(O)c2[C@@H](OC2CC(NC(=O)C(F)(F)F)C(O)C(C)O2)C1)C(=O)c1c(OC)cccc1C3=O (stereo not given in full) | 5620 nM | ILS (L1210 [1]): 0% |
| COc1cccc2c1C(=O)c1c(O)c3c(c(O)c1C2=O)C[C@@](O)(C(=O)C[Se]c1ccccc1)C[C@@H]3OC1CC(NC(=O)C(F)(F)F)C(O)C(C)O1 (stereo not given in full) | 2800 nM | ILS at 60 mg/kg (L1210 [2]): 66% |
| CCCCCSCC(=O)[C@]1(O)Cc2c(O)c3c(c(O)c2[C@@H](OC2CC(N)C(O)C(C)O2)C1)C(=O)c1c(OC)cccc1C3=O (stereo not given in full) | 950 nM | ILS at 10.13 mg/kg (L1210 [3]): 33% |
| CCOC(=O)CSCC(=O)[C@]1(O)Cc2c(O)c3c(c(O)c2[C@@H](OC2CC(NC(=O)C(F)(F)F)C(O)C(C)O2)C1)C(=O)c1c(OC)cccc1C3=O (stereo not given in full) | 5330 nM | ILS (L1210 [1]): 0% |
| COc1cccc2c1C(=O)c1c(O)c3c(c(O)c1C2=O)C[C@@](O)(C(=O)C[Se]c1ccccc1)C[C@@H]3OC1CC(N)C(O)C(C)O1 (stereo not given in full) | 400 nM | – |
| COc1cccc2c1C(=O)c1c(O)c3c(c(O)c1C2=O)C[C@@](O)(C(=O)CSCCCSCC(=O)[C@]1(O)Cc2c(O)c4c(c(O)c2[C@@H](OC2CC(N)C(O)C(C)O2)C1)C(=O)c1c(OC)cccc1C4=O)C[C@@H]3OC1CC(N)C(O)C(C)O1 (stereo not given in full) | 830 nM | – |
| CCCCCSCC(=O)[C@]1(O)Cc2c(O)c3c(c(O)c2[C@@H](OC2CC(NC(=O)C(F)(F)F)C(O)C(C)O2)C1)C(=O)c1c(OC)cccc1C3=O (stereo not given in full) | > 13800 nM | ILS (L1210 [1]): 10% |
| CCOC(=O)CSCC(=O)[C@]1(O)Cc2c(O)c3c(c(O)c2[C@@H](OC2CC(N)C(O)C(C)O2)C1)C(=O)c1c(OC)cccc1C3=O (stereo not given in full) | 230 nM | ILS at 30 mg/kg (L1210 [4]): 50% |
| CCCCSCC(=O)[C@]1(O)Cc2c(O)c3c(c(O)c2[C@@H](OC2CC(N)C(O)C(C)O2)C1)C(=O)c1c(OC)cccc1C3=O (stereo not given in full) | 250 nM | ILS at 10.13 mg/kg (L1210 [3]): 33% |
| CCCCCCCCCCCCSCC(=O)[C@]1(O)Cc2c(O)c3c(c(O)c2[C@@H](OC2CC(NC(=O)C(F)(F)F)C(O)C(C)O2)C1)C(=O)c1c(OC)cccc1C3=O (stereo not given in full) | > 15000 nM | ILS (L1210 [1]): 0% |
| CCCCC(=O)OCC(=O)[C@]1(O)Cc2c(O)c3c(c(O)c2[C@@H](OC2CC(NC(=O)C(F)(F)F)C(O)C(C)O2)C1)C(=O)c1c(OC)cccc1C3=O (stereo not given in full) | 240 nM | ILS at 50 mg/kg (L1210 [5]): > 455% |
| CCCCCCCCCCCCSCC(=O)[C@]1(O)Cc2c(O)c3c(c(O)c2[C@@H](OC2CC(N)C(O)C(C)O2)C1)C(=O)c1c(OC)cccc1C3=O (stereo not given in full) | 1440 nM | ILS at 10.13 mg/kg (L1210 [3]): 11% |
| COc1cccc2c1C(=O)c1c(O)c3c(c(O)c1C2=O)C[C@@](O)(C(=O)CO)C[C@@H]3O[C@H]1C[C@H](N)[C@H](O)[C@H](C)O1 [DOXORUBICIN] | 66 nM | ILS at 4 mg/kg (L1210 [6]): 50% |
| COc1cccc2c1C(=O)c1c(O)c3c(c(O)c1C2=O)C[C@@](O)(C(=O)CSCCSCC(=O)[C@]1(O)Cc2c(O)c4c(c(O)c2[C@H](OC2CC(N)C(O)C(C)O2)C1)C(=O)c1c(OC)cccc1C4=O)C[C@@H]3OC1CC(N)C(O)C(C)O1 (stereo not given in full) | 1060 nM | – |
| COc1cccc2c1C(=O)c1c(O)c3c(c(O)c1C2=O)C[C@@](O)(C(=O)CSCCCCCCCCCSCC(=O)[C@]1(O)Cc2c(O)c4c(c(O)c2[C@H](OC2CC(N)C(O)C(C)O2)C1)C(=O)c1c(OC)cccc1C4=O)C[C@@H]3OC1CC(N)C(O)C(C)O1 (stereo not given in full) | 1230 nM | – |
| COc1cccc2c1C(=O)c1c(O)c3c(c(O)c1C2=O)C[C@@](O)(C(=O)CSc1ccccc1)C[C@@H]3OC1CC(NC(=O)C(F)(F)F)C(O)C(C)O1 (stereo not given in full) | > 13700 nM | ILS at 101.25 mg/kg (L1210 [7]): 10% |
| COc1cccc2c1C(=O)c1c(O)c3c(c(O)c1C2=O)C[C@@](O)(C(=O)CSc1ccccc1)C[C@@H]3OC1CC(N)C(O)C(C)O1 (stereo not given in full) | 870 nM | ILS at 10.13 mg/kg (L1210 [3]): 22% |
